For test [1], the target named is human LSD-1 (Homo sapiens (Human), UniProt O60341). In words: In vitro enzyme inhibition assay LSD-1 (TR-FRET). The test is classed as biochemical. As to conditions: TR-FRET, H3K4me1-biotin labeled peptide. An excerpt: This assay determines the ability of a test compound to inhibit LSD-1 demethylase activity.
The enzymatic assay of LSD-1 activity is based on Time Resolved-Fluorescence Resonance Energy Transfer (TR-FRET) detection.
(Time-resolved FRET reads energy transfer from a long-lived donor to a nearby acceptor.)

Test [2] relates to CD11b expression in THP-1 (AML) cells. As to the kind of experiment: LSD-1 CD11b cellular assay (flow cytometry). The settings on record: Homo sapiens, THP-1, 96 h, read-out: THP-1 IC50. On the technique in general: Flow cytometry measures light scatter and fluorescence of single cells or particles in a stream.

A value given as a limit tells only on which side of the number the result lay.

As usually defined, the IC50 is the concentration needed to halve the response being measured.

Take `COc1ccc(-c2c(-c3ccc(C#N)c(F)c3)nc(NC[C@H]3CCNC3)n(C)c2=O)cc1` [Example 51, 2-fluoro-4-{5-(4-methoxy-phenyl)-1-methyl-6-oxo-2-[(3S)-(pyrrolidin-3-ylmethyl)-amino]-1,6-dihydro-pyrimidin-4-yl}-benzonitrile]: the IC50 is less than 0.1 µM in test [1] and 0.1 to 1 µM in test [2].
The corresponding values for `COc1ccc(-c2c(-c3ccc(C#N)c(F)c3)nc(NC[C@@H]3CCNC3)n(C)c2=O)cc1` [Example 52, 2-fluoro-4-{5-(4-methoxy-phenyl)-1-methyl-6-oxo-2-[(3R)-(pyrrolidin-3-ylmethyl)-amino]-1,6-dihydro-pyrimidin-4-yl}-benzonitrile] are less than 0.1 µM and 0.1 to 1 µM.
The corresponding values for `COc1ccc(-c2c(-c3ccc(C#N)c(F)c3)nc(N(C)C[C@H]3CCNC3)n(C)c2=O)cc1` [Example 54, 2-fluoro-4-[5-(4-methoxy-phenyl)-1-methyl-2-(methyl-(3S)-pyrrolidin-3-ylmethyl-amino)-6-oxo-1,6-dihydro-pyrimidin-4-yl]-benzonitrile] are less than 0.1 µM and less than 0.1 µM.
For `CN(C)c1ccc(-c2c(-c3ccc(C#N)c(F)c3)nc(N3CCC(N)CC3)n(C)c2=O)cn1` [Example 57, 4-[2-(4-amino-piperidin-1-yl)-5-(6-dimethylamino-pyridin-3-yl)-1-methyl-6-oxo-1,6-dihydro-pyrimidin-4-yl]-2-fluoro-benzonitrile], in that order: less than 0.1 µM and less than 0.1 µM.
Take `CNC1CCN(c2nc(-c3ccc(C#N)c(F)c3)c(-c3ccc(OC)nc3)c(=O)n2C)CC1` [Example 58, 2-fluoro-4-[5-(6-methoxy-pyridin-3-yl)-1-methyl-2-(4-methylamino-piperidin-1-yl)-6-oxo-1,6-dihydro-pyrimidin-4-yl]-benzonitrile]: the IC50 in test [1] and in test [2] was less than 0.1 µM each time.
With `CN(C)c1ccc(-c2c(-c3ccc(C#N)c(F)c3)nc(N3CCC(N)CC3)n(C)c2=O)cc1` [Example 59, 4-[2-(4-amino-piperidin-1-yl)-5-(4-dimethylamino-phenyl)-1-methyl-6-oxo-1,6-dihydro-pyrimidin-4-yl]-2-fluoro-benzonitrile], the IC50 in test [1] and in test [2] was less than 0.1 µM each time.
For the compound `Cn1c(N2CCC(N)CC2)nc(-c2ccc(C#N)c(F)c2)c(-c2ccc(N3CCCC3)nc2)c1=O` [Example 60, 4-[2-(4-amino-piperidin-1-yl)-1-methyl-6-oxo-5-(6-pyrrolidin-1-yl-pyridin-3-yl)-1,6-dihydro-pyrimidin-4-yl]-2-fluoro-benzonitrile], the IC50 in test [1] and in test [2] was less than 0.1 µM throughout.
Regarding `CN(C)c1ccc(-c2c(-c3ccc(C#N)c(F)c3)nc(N3CCCNCC3)n(C)c2=O)cn1` [Example 63, 4-[2-[1,4]diazepan-1-yl-5-(6-dimethylamino-pyridin-3-yl)-1-methyl-6-oxo-1,6-dihydro-pyrimidin-4-yl]-2-fluoro-benzonitrile], the IC50 in test [1] and in test [2] was less than 0.1 µM throughout.
`COc1ccc(-c2c(-c3ccc(C#N)c(F)c3)nc(N3CC(N)C3)n(C)c2=O)cc1` [Example 64, 4-[2-(3-amino-azetidin-1-yl)-5-(4-methoxy-phenyl)-1-methyl-6-oxo-1,6-dihydro-pyrimidin-4-yl]-2-fluoro-benzonitrile]: the IC50 is less than 0.1 µM in test [1] and 0.1 to 1 µM in test [2].
With `CN(C)c1ccc(-c2c(-c3ccc(C#N)cc3)nc(N3CCCNCC3)n(C)c2=O)cn1` [Example 67, 4-[2-[1,4]diazepan-1-yl-5-(6-dimethylamino-pyridin-3-yl)-1-methyl-6-oxo-1,6-dihydro-pyrimidin-4-yl]-benzonitrile], the concentration for half-maximal inhibition (IC50) in test [1] and in test [2] was less than 0.1 µM each time.
On to `Cn1c(N2CCC(N)CC2)nc(-c2ccc(C#N)c(F)c2)c(-c2ccc(N3CCOCC3)nc2)c1=O` [Example 68, 4-[2-(4-amino-piperidin-1-yl)-1-methyl-5-(6-morpholin-4-yl-pyridin-3-yl)-6-oxo-1,6-dihydro-pyrimidin-4-yl]-2-fluoro-benzonitrile], for which the IC50 in test [1] and in test [2] was less than 0.1 µM each time.
